Patent publication US20060058320A1, “[1,2,4] Triazolo[1,5-c]pyrimidine derivatives” (KYOWA HAKKO KOGYO CO., LTD., priority 2002, published 2006)
Structures can show the parent of a compound that is named as a salt. Where two headings read alike, the source gives them in different places.

Test system: CGS 21680-induced catalepsy
Test: Activity on CGS 21680-induced catalepsy
Type: in vivo, mice
Settings: for inhibition in vivo at 10 mg/kg: Mus musculus, po, read-out: Remission ratio (%); for Total score: total catalepsy score of 10 mice (maximum 50 points; 40 points or less = positive), one hour after administration; for Number of animals showing remission: cases with catalepsy score of 4 points or less in 10 cases
Experimental: Parkinson's disease is a motor disorder based on degeneration and cell death of the nigrostriatal dopaminergic neurons. When CGS 21680 (adenosine A2A receptor agonist) is administered into the intracerebral ventricle, the inhibitory synaptic transmission of GABA in the medium sized spiny neurons in the corpus striatum is inhibited directly via the adenosine A2A receptor [Journal of Neuroscience, vol. 16, p. 605 (1996)]. Accordingly, it is concidered that the adenosine A2A receptor agonists positively regulate the output of the GABAergic neurons from the corpus striatum to the globus pallidus lateralis, and, as a result, catalepsy is induced by the administration of CGS 21680.
The test was carried out using ten 5-week age male ddY mice (22-25 g in body weight, Japan SLC) per group. CGS 21680 (produced by RBI Co) was dissolved in physiological saline (produced by Otsuka Pharmaceutical Co., Ltd.), and 10 μg/20 μL of the solution was injected into mouse intracerebral ventricle. Each test compound was used by suspending it in distilled water containing 0.3% of polyoxylene (20) sorbitan monooleate (referred to as “Tween 80” hereinafter) (produced by Otsuka Pharmaceutical Co., Ltd.). The suspension containing each test compound or a solution containing no test Compound (distilled water containing 0.3% of Tween 80; used as a control) was orally administered (0.1 mL per 10 g of mouse body weight) 30 minutes before the injection of CGS 21680 into the intracerebral ventricle. One hour after the administration of the each test compound, only forelimbs or only hindlimbs of each mouse were laid on a vertically arranged stand made of acryl and having a size of 4.5 cm in height and 1.0 cm in width to measure catalepsy symptoms. All of the test compounds were administered orally in a dose of 10 mg/kg.
The criteria of the catalepsy score are shown below.
The effect was decided by a total catalepsy score of 10 mice in one group (the maximum score: 50 points). When the total score was 40 points or less, the activity of the compounds was decided positive. The number of the animals showing remission of catalepsy was expressed by the number of cases showing a catalepsy score of 4 points or less in 10 cases. The catalepsy remission ratio was expressed as the percentage of the total score in the test compound-administered group to the total score in the control group.

[1] = from total score of test group and control group, 10 mg/kg orally

Row | SMILES | inhibition in vivo at 10 mg/kg [1] [%] | Total score (10 mg/kg orally) | inhibition in vivo at 10 mg/kg [%] | Number of animals showing remission (10 mg/kg orally) | Remission ratio (%) [1] [%]
1 | Nc1nc(CO)cc2nc(-c3ccco3)nn12 [Compound 22, 5-Amino-2-(2-furyl)-7-hydroxymethyl[1,2,4]triazolo[1,5-c]-pyrimidine] | 84 | 8 | – | – | –
2 | CCOC1(c2cc3nc(-c4ccco4)nn3c(N)n2)CC1 [Compound 26, 5-Amino-7-(1-ethoxycyclopropyl)-2-(2-furyl)[1,2,4]triazolo [1,5-c]pyrimidine] | 82 | 9 | – | – | –
3 | CC(C)(O)c1ccccc1OCc1cc2nc(-c3ccco3)nn2c(N)n1 [Compound 29, 5-Amino-7-[2-(1-hydroxy-1-methylethyl)phenoxymethyl]-2-(2-furyl)[1,2,4]triazolo[1,5-c]pyrimidine] | 88 | 6 | – | – | –
4 | COc1ccc(CN(C)Cc2cc3nc(-c4ccco4)nn3c(N)n2)cc1OC [Compound 35, 5-Amino-7-[(N-methyl-3,4-dimethoxybenzylamino)methyl]-2-(2-furyl)[1,2,4]triazolo[1,5-c]pyrimidine monohydrochloride] | – | 5 | 90 | – | –
5 | Nc1nc(-c2ccccn2)cc2nc(-c3ccco3)nn12 [Compound 52, 5-Amino-2-(2-furyl)-7-(2-pyridyl)[1,2,4]triazolo[1,5-c]-pyrimidine] | 84 | 8 | – | – | –
6 | Nc1nc(-c2cccnc2)cc2nc(-c3ccco3)nn12 [Compound 53, 5-Amino-2-(2-furyl)-7-(3-pyridyl) [1,2,4]triazolo[1,5-c]-pyrimidine] | 84 | 8 | – | – | –
7 | Nc1nc(-c2cc[nH]n2)cc2nc(-c3ccco3)nn12 [Compound 60, 5-Amino-2-(2-furyl)-7-(1H-pyrazol-3-yl)[1,2,4]triazolo[1,5-c]pyrimidine] | 98 | 1 | – | – | –
8 | Nc1nc(-c2ccc(CO)cn2)cc2nc(-c3ccco3)nn12 [Compound 62, 5-Amino-2-(2-furyl)-7-(3-hydroxymethylpyridin-6-yl)[1,2,4]-triazolo[1,5-c]pyrimidine] | 80 | 10 | – | – | –
9 | CC(C)(O)c1ccc(-c2cc3nc(-c4ccco4)nn3c(N)n2)cc1 [Compound 63, 5-Amino-2-(2-furyl)-7-[4-(1-hydroxy-1-methylethyl)phenyl]-[1,2,4]triazolo[1,5-c]pyrimidine] | 98 | 1 | – | – | –
10 | Nc1nc(C2=CCN(Cc3csnn3)CC2)cc2nc(-c3ccco3)nn12 [Compound 72, 5-Amino-2-(2-furyl)-7-[1-(1,2,3-thiadiazol-4-yl)methyl-1,2,3,6-tetrahydropyridin-4-yl][1,2,4]triazolo[1,5-c]-pyrimidine] | – | 0 | 100 | – | –
11 | Nc1nc(C2=CCN(CCO)CC2)cc2nc(-c3ccco3)nn12 [Compound 75, 5-Amino-2-(2-furyl)-7-[1-(2-hydroxyethyl)-1,2,3,6-tetra-hydropyridin-4-yl][1,2,4]triazolo[1,5-c]pyrimidine] | – | 2 | 96 | – | –
12 | COc1ccc(CNC(=O)c2cc3nc(-c4ccco4)nn3c(N)n2)cc1OC [Compound 80, 5-Amino-2-(2-furyl)[1,2,4]triazolo[1,5-c]pyrimidine-7-carboxylic acid (3,4-dimethoxybenzyl)amide] | 88 | 6 | – | – | –
13 | COc1ccc(CN(C)C(=O)c2cc3nc(-c4ccco4)nn3c(N)n2)cc1OC [Compound 81, 5-Amino-2-(2-furyl)[1,2,4]triazolo[1,5-c]pyrimidine-7-carboxylic acid [N-(3,4-dimethoxybenzyl)-N-methyl]amide] | 96 | 2 | – | – | –
14 | Nc1nc(C(=O)NCCc2ccccn2)cc2nc(-c3ccco3)nn12 [Compound 84, 5-Amino-2-(2-furyl) [1,2,4]triazolo[1,5-c]pyrimidine-7-carboxylic acid [2-(2-pyridyl)ethyl]amide] | 92 | 4 | – | – | –
15 | COCCNC(=O)c1cc2nc(-c3ccco3)nn2c(N)n1 [Compound 86, 5-Amino-2-(2-furyl)[1,2,4]triazolo[1,5-c]pyrimidine-7-carboxylic acid (2-methoxyethyl)amide] | 100 | 0 | – | – | –
16 | COCCN(C)C(=O)c1cc2nc(-c3ccco3)nn2c(N)n1 [Compound 87, 5-Amino-2-(2-furyl)[1,2,4]triazolo[1,5-c]pyrimidine-7-carboxylic acid [N-(2-methoxyethyl)-N-methyl]amide] | 82 | 9 | – | – | –
17 | Nc1nc(C(=O)NCc2ccccc2)cc2nc(-c3ccco3)nn12 [Compound 91, 5-Amino-2-(2-furyl)[1,2,4]triazolo[1,5-c]pyrimidine-7-carboxylic acid benzylamide] | 94 | 3 | – | – | –
18 | Nc1nc(C(=O)NCCCN2CCCC2=O)cc2nc(-c3ccco3)nn12 [Compound 92] | 82 | 9 | – | – | –
19 | CC(C)N(Cc1ccccc1)C(=O)c1cc2nc(-c3ccco3)nn2c(N)n1 [Compound 100, 5-Amino-2-(2-furyl)[1,2,4]triazolo[1,5-c]pyrimidine-7-carboxylic acid (N-benzyl-N-isopropyl)amide] | – | 15 | – | 8 | 64
20 | CCN(Cc1ccncc1)C(=O)c1cc2nc(-c3ccco3)nn2c(N)n1 [Compound 102, 5-Amino-2-(2-furyl)[1,2,4]triazolo[1,5-c]pyrimidine-7-carboxylic acid [N-ethyl-N-(4-pyridylmethyl)]amide] | 92 | 4 | – | – | –
21 | CN(Cc1cccnc1)C(=O)c1cc2nc(-c3ccco3)nn2c(N)n1 [Compound 105, 5-Amino-2-(2-furyl)[1,2,4]triazolo[1,5-c]pyrimidine-7-carboxylic acid [N-methyl-N-(3-pyridylmethyl)]amide] | 82 | 9 | – | – | –
22 | CN(C(=O)c1cc2nc(-c3ccco3)nn2c(N)n1)c1ccc(Cl)nc1 [Compound 118, 5-Amino-2-(2-furyl)[1,2,4]triazolo[1,5-c]pyrimidine-7-carboxylic acid [N-(6-chloropyridin-3-yl)-N-methyl]amide] | 94 | 3 | – | – | –
23 | CN(Cc1ccc(F)cc1)C(=O)c1cc2nc(-c3ccco3)nn2c(N)n1 [Compound 121, 5-Amino-2-(2-furyl)[1,2,4]triazolo[1,5-c]pyrimidine-7-carboxylic acid [N-(4-fluorobenzyl)-N-methyl]amide monohydrochloride] | 72 | 14 | – | – | –
24 | CCN(Cc1cccnc1Cl)C(=O)c1cc2nc(-c3ccco3)nn2c(N)n1 [Compound 129, 5-Amino-2-(2-furyl)[1,2,4]triazolo[1,5-c]pyrimidine-7-carboxylic acid [N-ethyl-N-(2-chloropyridin-3-ylmethyl)]-amide] | 90 | 5 | – | – | –
25 | Cc1ccc(CN(C)C(=O)c2cc3nc(-c4ccco4)nn3c(N)n2)cn1 [Compound 130, 5-Amino-2-(2-furyl)[1,2,4]triazolo[1,5-c]pyrimidine-7-carboxylic acid [N-methyl-N-(6-methylpyridin-3-ylmethyl)]-amide] | 70 | 15 | – | – | –
26 | CN(CCc1cccnc1)C(=O)c1cc2nc(-c3ccco3)nn2c(N)n1 [Compound 138, 5-Amino-2-(2-furyl)[1,2,4]triazolo[1,5-c]pyrimidine-7-carboxylic acid {N-methyl-N-[2-(3-pyridyl)ethyl]}amide] | 78 | 11 | – | – | –
27 | COC1CCN(C(=O)c2cc3nc(-c4ccco4)nn3c(N)n2)CC1 [Compound 144, 5-Amino-2-(2-furyl)[1,2,4]triazolo[1,5-c]pyrimidin-7-yl 4-methoxypiperidino ketone] | 84 | 7 | – | – | –
28 | COC[C@H]1CCCN1C(=O)c1cc2nc(-c3ccco3)nn2c(N)n1 [Compound 149, (2R)-(2-Methoxymethyl)pyrrolidinyl 5-amino-2-(2-furyl)-7-[1,2,4]triazolo[1,5-c]pyrimidin-7-yl ketone] | – | 15 | – | 7 | 70
